From ChEMBL document CHEMBL1201862, “PubChem BioAssay data set” (2004)
Active and inactive are the calls of the source.

Tests used:
[1] = system: Vero; experiment: inhibition of WNV-induced cytopathic effect – cell-based, CPE readout (AID 1621); type: functional; settings: Chlorocebus sabaeus
[2] = cells
[3] = system: Vero; experiment: cells; type: functional, cell-based; settings: Chlorocebus sabaeus
[4] = system: Vero; experiment: mammalian cell viability reduction – secondary assay, cytotoxicity control for West Nile virus antiviral project, dose response (AID 1650); type: functional; settings: Chlorocebus sabaeus
[5] = viability of uninfected HEp-2 cells – cell-based, HTS, cytotoxicity control for RSV inhibitor project, dose response (AID 2410); type: functional; settings: human respiratory syncytial virus
[6] = biological target: Diphosphomevalonate decarboxylase (Streptococcus pneumoniae serotype 2 (strain D39 / NCTC 7466), UniProt Q9FD53); experiment: diphosphomevalonate decarboxylase inhibitor confirmation – biochemical, cuvette format, coupled NADH fluorescence (AID 1028); type: functional
[7] = HEK-293T cell viability reduction – luminescence, B-cell screen hits, cytotoxicity control for BCR NF-kB inhibitor project, dose response (AID 489021); type: functional, cell-based;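 note: HEK-293T cells carrying an NF-kB luciferase reporter; cells exposed to compound for about 14 hours before viability readout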
[8] = biological target: G-protein coupled receptor 35 (Homo sapiens, UniProt Q9HC97); experiment: SAR Analysis for the identification of Selective Antagonists of ERK1/2 Activity in GPR35-Overexpressing U2OS Cells. [Related pubchem assays: 2079, 2058 ]; type: functional, cell-based
[9] = biological target: T1, Protein RecA (Mycobacterium tuberculosis, UniProt P9WHJ3); experiment: Fluorescence Cell-Free Homogeneous Dose Retest to Identify Inhibitors of RecA-Intein Splicing Activity. [Related pubchem assays (depositor defined):AID2097, AID2223, AID489010, AID492950]; type: functional
T1 sequence (P9WHJ3 whole entry): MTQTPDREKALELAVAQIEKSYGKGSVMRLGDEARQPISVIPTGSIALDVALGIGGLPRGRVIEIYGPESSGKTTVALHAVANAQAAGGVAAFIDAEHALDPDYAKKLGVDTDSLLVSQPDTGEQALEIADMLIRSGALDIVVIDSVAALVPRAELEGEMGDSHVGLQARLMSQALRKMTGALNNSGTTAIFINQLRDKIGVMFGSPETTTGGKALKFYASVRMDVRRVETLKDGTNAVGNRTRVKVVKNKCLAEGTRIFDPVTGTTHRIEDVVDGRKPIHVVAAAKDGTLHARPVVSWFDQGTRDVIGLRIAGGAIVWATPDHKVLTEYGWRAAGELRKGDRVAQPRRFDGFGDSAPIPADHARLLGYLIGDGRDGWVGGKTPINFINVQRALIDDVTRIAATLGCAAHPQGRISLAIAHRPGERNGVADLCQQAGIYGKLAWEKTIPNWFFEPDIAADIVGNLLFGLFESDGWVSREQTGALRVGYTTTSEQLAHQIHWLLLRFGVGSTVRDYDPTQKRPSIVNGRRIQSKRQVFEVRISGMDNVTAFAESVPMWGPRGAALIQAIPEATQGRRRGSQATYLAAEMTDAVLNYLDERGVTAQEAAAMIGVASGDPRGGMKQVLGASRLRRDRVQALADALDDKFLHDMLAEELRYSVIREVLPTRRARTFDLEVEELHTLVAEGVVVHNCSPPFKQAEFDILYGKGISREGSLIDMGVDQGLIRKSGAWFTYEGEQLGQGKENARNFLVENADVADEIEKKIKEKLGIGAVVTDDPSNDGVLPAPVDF

[10] = biological target: T2, Replicative DNA helicase DnaB (Mycobacterium tuberculosis, UniProt P9WMR3); experiment: DnaB intein splicing inhibitors, dose response, biochemical, cell-free fluorescence (AID 449749); type: functional
T2 sequence (P9WMR3 whole entry): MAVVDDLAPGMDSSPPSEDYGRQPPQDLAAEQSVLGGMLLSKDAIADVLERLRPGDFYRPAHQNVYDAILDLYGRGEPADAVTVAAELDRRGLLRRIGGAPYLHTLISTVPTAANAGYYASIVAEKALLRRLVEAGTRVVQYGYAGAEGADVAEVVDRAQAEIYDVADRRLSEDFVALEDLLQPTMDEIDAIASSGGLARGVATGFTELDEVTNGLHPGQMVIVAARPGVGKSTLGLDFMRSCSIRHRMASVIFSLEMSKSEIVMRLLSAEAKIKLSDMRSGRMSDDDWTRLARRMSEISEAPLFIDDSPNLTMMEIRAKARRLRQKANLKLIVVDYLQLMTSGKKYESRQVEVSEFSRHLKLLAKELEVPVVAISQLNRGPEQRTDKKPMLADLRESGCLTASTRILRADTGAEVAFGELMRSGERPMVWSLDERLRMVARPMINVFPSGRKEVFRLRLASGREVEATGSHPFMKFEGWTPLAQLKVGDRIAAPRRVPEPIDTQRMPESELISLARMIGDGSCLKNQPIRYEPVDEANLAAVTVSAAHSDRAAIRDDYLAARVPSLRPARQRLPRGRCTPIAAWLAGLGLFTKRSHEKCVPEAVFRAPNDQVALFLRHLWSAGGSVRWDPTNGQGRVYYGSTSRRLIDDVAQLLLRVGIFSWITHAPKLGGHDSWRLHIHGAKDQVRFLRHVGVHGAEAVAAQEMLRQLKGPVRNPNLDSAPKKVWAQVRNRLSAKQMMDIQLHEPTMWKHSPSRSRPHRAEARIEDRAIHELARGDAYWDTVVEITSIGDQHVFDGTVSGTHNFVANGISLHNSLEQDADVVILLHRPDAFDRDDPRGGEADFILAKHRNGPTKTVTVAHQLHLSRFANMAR

[11] = biological target: G-protein coupled receptor 55 (Homo sapiens, UniProt Q9Y2T6); experiment: blockers of GPR55 signalling, imaged – imaging, image-based, counter-screen for GPR35 antagonist project, SAR follow-up (AID 2397); type: functional
[12] = Luminescence Cell-Based Dose Retest to Confirm Inhibitors of Cancer Stem Cells. [Related pubchem assays (depositor defined):AID2717, AID2721]; type: functional; settings: Homo sapiens
[13] = biological target: DNA repair and recombination protein RAD54-like (Homo sapiens, UniProt Q92698); experiment: RAD54 Holliday junction migration blockers – biochemical, fluorescence, cherry-picked samples, dose series, confirmation (AID 651657); type: functional
[14] = Trypanosoma cruzi growth suppression in host cells – NIH3T3 host cells, beta-gal luminescence, confirmation (AID 2044); type: functional, cell-based;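 note: intracellular parasites grown in NIH/3T3 mouse fibroblasts as host cells; luminescent beta-galactosidase reporter signal from transgenic T. cruzi replicating inside host cells; inhibitors lower the luminescence signal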
[15] = Luminescent dose response cell-based high throughput screening assay for inhibitors of the Janus kinase 2 mutant JAK2V617F. [Related pubchem assays: 1446 (Primary screen.), 1521 (Confirmation assay.), 1486 (Counter screen.)]; type: functional
[16] = NIH3T3 cell viability loss – ATP luminescence, mouse fibroblasts, counter-screen, dose response (AID 2010); type: functional, cell-based;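 note: cells exposed to compound for about 90 hours before reading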
[17] = biological target: T3, Cytochrome P450 1A2 (Homo sapiens, UniProt P05177);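 note: PubChem cytochrome P450 panel assay, CYP1A2 panel member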
T3 sequence (P05177 whole entry): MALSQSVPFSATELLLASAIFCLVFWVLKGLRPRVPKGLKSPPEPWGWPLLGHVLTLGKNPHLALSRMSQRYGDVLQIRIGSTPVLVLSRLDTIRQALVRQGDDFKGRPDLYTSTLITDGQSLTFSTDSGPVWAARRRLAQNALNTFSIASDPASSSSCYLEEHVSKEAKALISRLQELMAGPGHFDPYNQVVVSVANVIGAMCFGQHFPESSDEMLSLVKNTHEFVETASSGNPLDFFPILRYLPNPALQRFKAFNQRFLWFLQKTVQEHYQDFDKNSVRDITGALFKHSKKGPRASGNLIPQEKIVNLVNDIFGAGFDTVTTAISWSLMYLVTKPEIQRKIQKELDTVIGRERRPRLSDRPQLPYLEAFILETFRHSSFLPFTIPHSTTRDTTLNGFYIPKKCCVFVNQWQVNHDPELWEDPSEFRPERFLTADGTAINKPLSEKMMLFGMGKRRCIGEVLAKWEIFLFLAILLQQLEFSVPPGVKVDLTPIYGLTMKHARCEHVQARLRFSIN

[18] = biological target: T4, Tyrosine-protein phosphatase non-receptor type 7 (Homo sapiens, UniProt P35236); experiment: HePTP tyrosine phosphatase activity blockers – biochemical, absorbance, leukemia target, primary screen (AID 521); type: functional
T4 sequence (P35236 whole entry): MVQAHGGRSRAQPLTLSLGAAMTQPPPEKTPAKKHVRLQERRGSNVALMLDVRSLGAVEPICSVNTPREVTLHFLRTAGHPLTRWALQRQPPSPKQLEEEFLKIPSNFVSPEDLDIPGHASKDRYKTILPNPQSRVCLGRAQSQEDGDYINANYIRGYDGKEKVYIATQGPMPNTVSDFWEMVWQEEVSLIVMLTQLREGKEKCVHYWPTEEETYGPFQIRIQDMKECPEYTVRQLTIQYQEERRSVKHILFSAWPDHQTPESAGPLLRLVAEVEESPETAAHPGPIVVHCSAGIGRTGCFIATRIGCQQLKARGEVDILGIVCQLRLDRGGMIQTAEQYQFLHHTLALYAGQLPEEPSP

[19] = M. tuberculosis growth inhibition, HTS (AID 449762); type: functional
[20] = biological target: T5, Mannose-6-phosphate isomerase (Homo sapiens, UniProt P34949); experiment: MPI inhibition at elevated mannose 6-phosphate – biochemical, fluorescence intensity, high mannose 6-phosphate, primary screen (AID 1220)
T5 sequence (P34949 whole entry): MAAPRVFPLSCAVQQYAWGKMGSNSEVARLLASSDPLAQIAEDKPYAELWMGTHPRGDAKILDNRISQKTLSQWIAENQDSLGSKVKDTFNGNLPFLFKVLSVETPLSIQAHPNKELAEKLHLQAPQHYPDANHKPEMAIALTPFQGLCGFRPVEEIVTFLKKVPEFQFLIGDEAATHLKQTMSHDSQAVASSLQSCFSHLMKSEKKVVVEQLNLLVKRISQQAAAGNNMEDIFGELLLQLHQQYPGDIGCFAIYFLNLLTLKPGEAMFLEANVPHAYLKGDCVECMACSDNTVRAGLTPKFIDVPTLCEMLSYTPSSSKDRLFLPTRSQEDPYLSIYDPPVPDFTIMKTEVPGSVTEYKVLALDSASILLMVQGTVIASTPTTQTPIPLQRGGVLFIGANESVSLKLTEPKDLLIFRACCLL

[21] = biological target: T6, High affinity choline transporter 1 (Homo sapiens, UniProt Q9GZV3); experiment: human choline transporter blockers, potency – cell-based, 5-point CRC, membrane potential dye, dose response (AID 504840); type: functional
T6 sequence (Q9GZV3 whole entry): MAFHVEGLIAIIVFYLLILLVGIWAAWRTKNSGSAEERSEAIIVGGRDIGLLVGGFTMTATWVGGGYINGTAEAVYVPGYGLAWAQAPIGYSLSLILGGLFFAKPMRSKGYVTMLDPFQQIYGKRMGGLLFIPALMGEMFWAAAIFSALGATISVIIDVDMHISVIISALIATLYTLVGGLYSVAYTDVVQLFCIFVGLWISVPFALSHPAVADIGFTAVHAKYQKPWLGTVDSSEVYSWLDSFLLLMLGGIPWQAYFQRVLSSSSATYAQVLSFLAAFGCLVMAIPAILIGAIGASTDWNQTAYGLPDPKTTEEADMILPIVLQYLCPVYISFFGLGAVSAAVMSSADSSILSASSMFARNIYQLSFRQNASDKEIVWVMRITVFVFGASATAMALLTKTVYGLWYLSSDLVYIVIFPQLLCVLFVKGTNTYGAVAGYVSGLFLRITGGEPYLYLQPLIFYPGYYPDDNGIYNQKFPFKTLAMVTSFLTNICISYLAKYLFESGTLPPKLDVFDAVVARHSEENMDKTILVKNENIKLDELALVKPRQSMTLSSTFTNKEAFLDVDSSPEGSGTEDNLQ

[22] = Luminescence Cell-Based Dose Confirmation HTS to Identify Inhibitors of Platelet Dense Granule Release. [Related pubchem assays: 1663 (Primary HTS), 1678 (Summary of Project)]; type: functional
[23] = biological target: Luciferin 4-monooxygenase (Photinus pyralis, UniProt P08659); experiment: inhibition of purified Photinus pyralis luciferase – biochemical, luminescence, dose response (AID 1891)
[24] = Fluorescence Cell-Based Dose Response to Identify Inhibitors of Thrombin Receptor-Activating Peptide SFLLRN-Mediated P-Selectin Induction on Platelets. [Related pubchem assays: 1663 (Primary HTS), 1889 (retest at dose ), 1891 (counterscreen), 1678 (Project Summary)]; type: functional
[25] = biological target: Ephrin type-A receptor 4 (Mus musculus, UniProt Q03137); experiment: EphA4 ligand-binding antagonists – biochemical, colorimetric, mouse EphA4, primary screen (AID 689); type: functional
Ephrin type-A receptor 4, sequence (Q03137 whole entry): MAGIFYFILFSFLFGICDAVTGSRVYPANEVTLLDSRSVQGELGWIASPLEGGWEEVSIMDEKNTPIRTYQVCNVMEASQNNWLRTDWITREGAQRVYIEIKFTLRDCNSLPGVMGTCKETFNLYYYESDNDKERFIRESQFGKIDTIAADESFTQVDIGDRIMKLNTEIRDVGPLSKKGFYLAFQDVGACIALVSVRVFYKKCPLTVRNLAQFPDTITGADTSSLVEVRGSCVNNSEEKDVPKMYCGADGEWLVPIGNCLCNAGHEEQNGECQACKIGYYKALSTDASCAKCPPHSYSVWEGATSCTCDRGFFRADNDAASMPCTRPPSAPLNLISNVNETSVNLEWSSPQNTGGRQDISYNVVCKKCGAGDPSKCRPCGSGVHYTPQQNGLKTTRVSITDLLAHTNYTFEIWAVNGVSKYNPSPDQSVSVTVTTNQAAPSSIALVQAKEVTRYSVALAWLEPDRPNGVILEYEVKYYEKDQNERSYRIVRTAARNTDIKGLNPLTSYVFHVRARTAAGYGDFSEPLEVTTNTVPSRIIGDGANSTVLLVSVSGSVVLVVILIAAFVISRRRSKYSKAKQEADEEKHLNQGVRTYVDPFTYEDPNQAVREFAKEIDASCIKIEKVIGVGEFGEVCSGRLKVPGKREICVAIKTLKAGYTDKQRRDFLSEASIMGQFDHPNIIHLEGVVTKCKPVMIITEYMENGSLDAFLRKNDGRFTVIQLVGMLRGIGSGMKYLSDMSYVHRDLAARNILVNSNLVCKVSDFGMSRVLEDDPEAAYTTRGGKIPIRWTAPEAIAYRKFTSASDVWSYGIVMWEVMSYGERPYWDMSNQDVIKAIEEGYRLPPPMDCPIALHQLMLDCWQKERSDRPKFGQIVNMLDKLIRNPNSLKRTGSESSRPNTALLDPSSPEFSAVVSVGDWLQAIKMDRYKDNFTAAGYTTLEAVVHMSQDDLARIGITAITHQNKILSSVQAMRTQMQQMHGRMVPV

Luciferin 4-monooxygenase, sequence (P08659 whole entry): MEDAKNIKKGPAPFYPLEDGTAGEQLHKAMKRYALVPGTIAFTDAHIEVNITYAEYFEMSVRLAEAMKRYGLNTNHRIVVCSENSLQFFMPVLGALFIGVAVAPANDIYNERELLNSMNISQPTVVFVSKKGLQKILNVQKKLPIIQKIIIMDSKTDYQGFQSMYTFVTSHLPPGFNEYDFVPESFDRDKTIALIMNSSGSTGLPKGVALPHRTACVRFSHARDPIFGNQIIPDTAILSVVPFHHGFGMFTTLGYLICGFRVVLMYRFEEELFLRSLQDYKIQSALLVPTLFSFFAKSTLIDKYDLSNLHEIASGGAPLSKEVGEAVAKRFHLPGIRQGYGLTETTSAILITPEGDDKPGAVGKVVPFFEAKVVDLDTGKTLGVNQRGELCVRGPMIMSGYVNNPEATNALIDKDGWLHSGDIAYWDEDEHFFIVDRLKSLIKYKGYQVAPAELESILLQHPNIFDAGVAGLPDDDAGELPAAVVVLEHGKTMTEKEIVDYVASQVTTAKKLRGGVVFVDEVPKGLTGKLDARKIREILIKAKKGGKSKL
Diphosphomevalonate decarboxylase, sequence (Q9FD53 whole entry): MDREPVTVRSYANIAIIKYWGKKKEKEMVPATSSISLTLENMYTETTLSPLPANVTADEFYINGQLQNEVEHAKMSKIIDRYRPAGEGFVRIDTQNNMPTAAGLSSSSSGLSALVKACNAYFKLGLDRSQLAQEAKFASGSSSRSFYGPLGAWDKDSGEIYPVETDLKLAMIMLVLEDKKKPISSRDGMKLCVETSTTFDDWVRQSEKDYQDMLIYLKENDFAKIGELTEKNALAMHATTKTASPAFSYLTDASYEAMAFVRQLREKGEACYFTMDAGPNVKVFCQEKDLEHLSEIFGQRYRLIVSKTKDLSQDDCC
DNA repair and recombination protein RAD54-like, sequence (Q92698 whole entry): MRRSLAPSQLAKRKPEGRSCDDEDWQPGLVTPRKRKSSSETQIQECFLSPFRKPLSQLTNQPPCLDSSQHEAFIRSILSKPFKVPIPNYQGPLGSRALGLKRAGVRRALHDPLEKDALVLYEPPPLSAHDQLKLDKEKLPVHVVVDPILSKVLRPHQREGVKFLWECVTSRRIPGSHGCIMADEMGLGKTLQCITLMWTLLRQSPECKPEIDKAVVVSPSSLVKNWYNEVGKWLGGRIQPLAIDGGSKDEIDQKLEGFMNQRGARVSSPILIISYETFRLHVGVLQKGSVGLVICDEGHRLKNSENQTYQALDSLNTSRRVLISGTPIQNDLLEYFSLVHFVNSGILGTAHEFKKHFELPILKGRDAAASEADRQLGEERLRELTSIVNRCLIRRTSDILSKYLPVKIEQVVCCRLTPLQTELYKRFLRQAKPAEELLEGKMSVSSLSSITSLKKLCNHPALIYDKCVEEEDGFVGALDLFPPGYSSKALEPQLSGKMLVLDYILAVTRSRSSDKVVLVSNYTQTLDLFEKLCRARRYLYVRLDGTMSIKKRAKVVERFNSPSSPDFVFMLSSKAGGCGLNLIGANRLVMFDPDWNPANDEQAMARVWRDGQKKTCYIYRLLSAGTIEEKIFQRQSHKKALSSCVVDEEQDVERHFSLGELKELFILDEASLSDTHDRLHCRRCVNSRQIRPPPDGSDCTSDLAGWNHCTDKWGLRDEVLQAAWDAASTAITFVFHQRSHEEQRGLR
G-protein coupled receptor 55, sequence (Q9Y2T6 whole entry): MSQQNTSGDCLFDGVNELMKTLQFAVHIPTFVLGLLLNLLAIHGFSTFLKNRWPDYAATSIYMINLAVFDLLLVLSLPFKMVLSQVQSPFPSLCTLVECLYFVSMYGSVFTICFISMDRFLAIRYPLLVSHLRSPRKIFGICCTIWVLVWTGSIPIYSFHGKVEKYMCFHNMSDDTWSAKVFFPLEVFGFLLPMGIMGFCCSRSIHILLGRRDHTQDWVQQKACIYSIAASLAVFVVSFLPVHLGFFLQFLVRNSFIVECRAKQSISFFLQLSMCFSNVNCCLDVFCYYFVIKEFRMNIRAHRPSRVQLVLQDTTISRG
G-protein coupled receptor 35, sequence (Q9HC97 whole entry): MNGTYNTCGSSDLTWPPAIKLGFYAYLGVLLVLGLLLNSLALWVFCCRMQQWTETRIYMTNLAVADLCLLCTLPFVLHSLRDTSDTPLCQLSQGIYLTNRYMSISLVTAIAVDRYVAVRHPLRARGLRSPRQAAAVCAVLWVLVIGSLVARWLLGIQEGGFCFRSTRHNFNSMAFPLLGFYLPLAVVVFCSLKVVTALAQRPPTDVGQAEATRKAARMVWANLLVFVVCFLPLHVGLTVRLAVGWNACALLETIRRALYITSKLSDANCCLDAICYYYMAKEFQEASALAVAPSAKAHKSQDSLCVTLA

## COC(=O)c1c(-c2ccccc2)csc1NC(=O)c1c(-c2ccccc2)noc1C
[1]
  IC50: 41.3 µM (active)
[2]
  IC50: 3.07 µM (active)
[3]
  IC50: 0.8 µM (active)
[4]
  CC50: 10.1 µM (active)
[5]
  CC50: 6.35 µM (active)

## O=C(NCc1ccco1)c1ccc(-n2sc3ccccc3c2=O)cc1
[6]
  IC50: 4.68 µM (active)

## COc1ccc(/C=C2\SC(=S)N(CCCC(=O)Nc3ccc(O)cc3)C2=O)cc1
[7]
  IC50: > 80 µM (inactive)
[8]
  IC50: > 32 µM (not active)
[9]
  EC50: 78.1 µM (active)
[10]
  AC50: > 380 µM (inactive)
[11]
  IC50: > 32 µM (inactive)

## CC1CCCN(CCCNC(=O)c2cc3c(Cl)nc4ccccc4c3s2)C1 (stereo not given)
[12]
  AC50: 8.01 µM (active)
[13]
  AC50: 9.98 µM (active)
[14]
  EC50: 1.4 µM (active)
[15]
  IC50: 0.934 µM (active)
[16]
  EC50: 6.28 µM (active)

## Cc1c(NC(=O)CN2C(=O)C3C4C=CC(C4)C3C2=O)c(=O)n(-c2ccccc2)n1C (stereo not given)
[17]
  AC50: 39.8 µM (inconclusive)
[18]
  IC50: > 100 µM (not active)

## Cc1cccc(CSc2nc3c(c(-c4cccs4)c2C#N)CN(C)CC3)c1
[19]
  IC50: > 100 µM (active)
[9]
  EC50: 0.503 µM (active)
[14]
  EC50: 0.101 µM (active)
[10]
  AC50: 16.5 µM (active)
[20]
  IC50: > 50 µM (not active)
[16]
  EC50: > 60 µM (not active)

## COC(=O)C(C)Sc1nc2c(c(=O)[nH]c(=O)n2C)n1CCCc1ccccc1 (stereo not given)
[21]
  IC50: 12.6 µM (active)
[22]
  EC50: 6.52 µM (active)
[23]
  EC50: > 112 µM (not active)
[24]
  EC50: < 30 µM (active)

## CCn1c(SCc2nc(-c3ccccc3)no2)nnc1-c1cccs1
[21]
  IC50: 15.1 µM (active)
[25]
  IC50: > 100 µM (not active)
